Results: patent US20080234203A1, “Use of Substances Having Oxytocin Antagonistic Properties” (Ferring BV, priority 2004, published 2008)

Key:
[1] = system: isolated rat uterine artery; assay: In vitro contractility of isolated rat uterine artery from nonpregnant, midpregnant and late pregnant rats
Description: The X axis-represents the oxytocin concentration {log M} and the Y axis represents % of phenylephrine-induced contraction. […] The following pD2 values were obtained, non-pregnant (9.32±0.41, n=7), midpregnant (7.46±0.13, n=6) and late pregnant (7.87±0.39, n=6). It could be speculated that the generally lower sensitivity of uterine vessels during pregnancy is related to eventually higher local oxytocin concentrations.
(§1) Nonpregnant or timed-pregnant Sprague-Dawley rats (of a 22-day pregnancy, with day 1 being the day when the sperm plug was observed) were obtained from Charles River Laboratories (Houston, Tex.). In some studies Spontaneously Hypertensive Rats (SHR) and their respective normatensive controls (WKY) were used. Rats were killed by means of carbon dioxide inhalation on day 14 (midterm pregnant) or day 22 before labor (term pregnant) or during the estrus cycle (nonpregnant). […] Contractions of uterine vascular tissues (cut into rings) were recorded and stored on computer with the DI-220 (DataQ Instruments Inc, Akron, Ohio) data acquisition system. […]
(§2) Data were analyzed by using Windaq/200 (DataQ Instruments Inc) software. Integral activity as an area under the tracing of vascular contractions for 10 minutes (expressed as milligrams per second) before (basal activity) and after the addition of each concentration of the agent was calculated and compared with basal activity (as percentage change). […] The concentration of oxytocin causing 50% of the maximal effect was determined, and the −log50 of the half maximal effect and the area under the concentration-response curves were calculated and compared. The data are expressed as mean ± SD. […]

[2] = system: isolated uterine artery, femoral artery, carotoid artery and aorta; assay: In vitro contractility of isolated arteries from non-pregnant SHR rats; design: species or system spontaneous hypertensive (SHR) rats; details: uterine arteries compared with femoral artery
Description: as §1, §2

[3] = system: isolated uterine artery, femoral artery, carotoid artery and aorta; assay: In vitro contractility of isolated arteries from non-pregnant WKY rats; design: species or system Wistar (WKY) rats
Description: as §1, §2

[4] = system: pregnant rats; assay: Blood pressure measurements in pregnant rats (tail cuff); type: in vivo, rat; details: 200 μg/d, gestational day 19 to 22 and pp1 to pp7
Method: The X axis represents the time of pregnancy (gestational age), and the Y axis represents the systolic blood pressure (mmHg). Barusiban (200 μg/d), atosiban (200 μg/d) and control (saline) (200 μg/d) were administered to pregnant rats from gestational day 19 to 22 and during pp1 to pp7 (pp=post partum).
Animals. Adult nulliparous pregnant rats (300-325 g body weight) were purchased from Harlan Sprague Dawley, Inc (Indianapolis, Ind.), and were received in the animal facilities on day 16 of pregnancy (with day 1 being the day of the positive sperm smear result). All animals were given free access to food and water.
Blood pressure measurement. Starting on day 19 of pregnancy systolic blood pressure was measured daily or every other day with a pneumatic tail cuff device (NARCO Biosystems, Inc, Austin, Tex.) in animals that had been warmed in a metal chamber maintained at approximately 30° C. Blood pressure values obtained from 3 consecutive measurements were averaged and recorded as the pressure for a given rat at each point. Measurements of systolic blood pressure of all animals were carried out until delivery and for seven days post partum (pp7) All animals delivered on day 22 of gestation, the expected day of delivery. Three groups of animals were studied: Group 1. […]
Statistical analysis. Mean +/− SEM values were calculated for blood pressure levels on each day of pregnancy and post partum. […]

Question: With `CC[C@H](C)[C@@H]1NC(=O)[C@H](Cc2ccc(O)cc2)NC(=O)[C@@H](N)CSSC[C@@H](C(=O)N2CCC[C@H]2C(=O)N[C@@H](CC(C)C)C(=O)NCC(N)=O)NC(=O)[C@H](CC(N)=O)NC(=O)[C@H](CCC(N)=O)NC1=O` [oxytocin] as the compound, how does the “pD2 (oxytocin-induced contraction, % of phenylephrine-induced contraction)” value ([1]; uterine artery of late pregnant rats, n=6) read?
Answer: The value was 7.87±0.39.

Question: And the “pD2 (oxytocin-induced contraction, % of phenylephrine-induced contraction)” value ([1]; uterine artery of midpregnant rats, n=6)?
Answer: Its value is 7.46±0.13.

Question: And the “pD2 (oxytocin-induced contraction, % of phenylephrine-induced contraction)” value ([1]; uterine artery of non-pregnant rats, n=7)?
Answer: The value was 9.32±0.41.

Question: What about the “oxytocin sensitivity (contraction dose/response)” value [2] of the same compound?
Answer: The value was “highest sensitivity”.

Question: And the “oxytocin sensitivity (contraction dose/response)” value ([3]; uterine arteries compared with femoral artery, carotoid artery and aorta, non-pregnant WKY rats)?
Answer: The value was “outstanding high sensitivity”.

Question: And the “oxytocin sensitivity (contraction dose/response)” value ([3]; uterine arteries of non-pregnant WKY rats compared with SHR rats)?
Answer: Its value is “higher sensitivity”.

Question: How did the systolic blood pressure [4] turn out when “C^4,6, S^1-cyclo [Barusiban, C^4,6, S^1-cyclo [N-(3-sulfanylpropanoyl) -D-tryptophyl-L -isoleucyl-L-alloisoleucyl-L-asparaginyl-L-2-aminobutanoyl-N-methyl-L-ornithinol]]” was run?
Answer: The systolic blood pressure was “beneficial drop in systolic blood pressure around birth”.
